Test results as given in US20250222116A1, “PARP-1 DEGRADATION AGENT AND USE THEREOF” (XIZANG HAISCO PHARMACEUTICAL CO., LTD., priority 2021, published 2025).

Experiments:
PARP2 [1] = target: T1, PARP2 (Homo sapiens (Human), UniProt Q9UGN5); assay: PARP2 enzyme activity inhibition (chemiluminescence kit); format: biochemical
Description: (§1) PARP1, PARP2 and PARP7 chemical […] detection kits were all purchased from BPS Bioscience. The histone solution in the kit was diluted 5× with 1×PBS, and 25 μL of the diluted histone solution was added to a microwell plate and incubated overnight at 4° C. After the incubation was completed, the plate was washed three times with PBST (0.05% Tween-20). 25 μL of a blocking solution was added to the microwell plate and incubated at 25° C. for 90 minutes. After the incubation was completed, the plate was washed three times with PBST. 2.5 μL of compounds at different concentrations diluted in test buffer and 5 μL of 2.5× substrate mixed solution were added to the microwell plate. PARP1, PARP2 and PARP7 enzymes were diluted to 0.33, 0.23 and 5.00 ng/μL, respectively, 5 μL of the diluent was added to the microwell plate, and the reaction system was incubated at 25° C. for 60 minutes. After the incubation was completed, the plate was washed three times with PBST. […] ELISA ECL substrate A and substrate B were mixed at a ratio of 1:1 (v/v), 25 μL of the mixture was added to the microwell plate, and the chemiluminescence value was read using a BMG microplate reader.
(§2) Curve fitting was performed by four parameters (log(inhibitor) vs. response−Variable slope) using GraphPad Prism software, and the IC50 value was calculated.

PARP7 = PARP7 (Homo sapiens (Human), UniProt Q7Z3E1); assay: PARP7 enzyme activity inhibition (chemiluminescence kit); format: biochemical
Description: as §1, §2

PARP1 = PARP1 (Homo sapiens (Human), UniProt P09874); assay: PARP1 protein expression level in MDA-MB-231 cells; format: cell-based; conditions: 24 hours
Description: The cells were collected into a 1.5 mL centrifuge tube, 25 μL of RIPA lysis buffer (containing 1× protease inhibitor cocktail) was added, and the cells were lysed on ice for 15 minutes and centrifuged at 12000 rpm/min at 4° C. for 10 minutes. The supernatant was collected and the protein content was determined using the BCA method. […] DC50 values were calculated using a four-parameter non-linear fitting model in Graphpad 8.3.0 software.

PARP2 [2] = target: T1, PARP2; assay: PARP2 protein expression level in MDA-MB-231 cells; format: cell-based
Description: MDA-MB-231 cells were placed in a complete DMEM medium (supplemented with 10% FBS and 1% penicillin-streptomycin solution) and cultured at 37° C. and 5% CO2. The cells in the logarithmic growth phase were collected, the cell density was adjusted to 5×10^5 cells/well with the culture medium, and the cells were added to a 6-well cell culture plate at a volume of 1 mL/well, and cultured overnight in a 37° C., 5% CO2 incubator. On day 2, the compound to be tested was prepared to 2-fold the final concentration, 1 mL of the compounds at different concentrations were added to administration wells and a medium containing 0.2% DMSO was added to control wells, and the plate was incubated for 24 hours at 37° C. and 5% CO2. […] The supernatant was collected and the protein content was determined using the BCA method. The protein sample to be tested was diluted to 2 mg/mL, PARP2 was detected using a fully automated protein expression quantitative analyzer (ProteinSimple), and the internal reference protein was 3-actin (both antibodies were from CST). The software (Compass for SW) of the fully automated protein expression quantitative analyzer was used to process the raw data and calculate the peak area and the PARP2 expression rate relative to the control group. DC50 values were calculated using a four-parameter non-linear fitting model in Graphpad 8.3.0 software.

[3] = Pharmacokinetic test in rats; format: in vivo, SD rats
Description: 7.1 Experimental animals: male SD rats, about 220 g, 6-8 weeks old, 6 rats/compound, purchased from Chengdu Ddossy Experimental Animals Co., Ltd.
7.2 Experimental design: on the day of the experiment, 12 SD rats were randomly grouped according to their body weights. The animals were fasted with water available for 12 to 14 h one day before the administration, and were fed 4 h after the administration.
Before and after the administration, 0.15 mL of blood was taken from the orbit of the animals under isoflurane anesthesia and placed in an EDTAK2 centrifuge tube. The blood was centrifuged at 5000 rpm and 4° C. for 10 min to collect plasma. The blood collection time points for the intravenous administration group and intragastric administration group were: 0, 5 min, 15 min, 30 min, 1 h, 2 h, 4 h, 6 h, 8 h, and 24 h. Before analysis and detection, all samples were stored at −80° C. The samples were analyzed quantitatively by LC-MS/MS.

[4] = test system: Human breast cancer MDA-MB-436 cells; assay: Mouse MDA-MB-436 subcutaneous in vivo transplanted tumor model; conditions: for TGI: after 28 days of administration
Description: Human breast cancer MDA-MB-436 cells were placed in Leibovitz's L-15 medium (supplemented with 10 μg/mL insulin, 16 μg/mL glutathione, 10% fetal bovine serum and 1% penicillin-streptomycin solution) and cultured at 37° C. Conventional digestion treatment with trypsin was performed twice a week for passage. When the cell saturation was 80%-90%, and the number reached the requirement, the cells were harvested, counted, and inoculated. BALB/c nude mice (from Beijing Vital River Laboratory Animal Technology Co., Ltd.) were subcutaneously inoculated with 0.2 mL (10×10^6) of MDA-MB-436 cells (plus matrigel, with the volume ratio of 1:1) on the right back. When the average tumor volume reached about 180 mm^3, grouping and administration were performed (marked as Day 0). The solvent group was given 5% DMSO, 30% PEG400 and 65% of 20% sulfobutyl-β-cyclodextrin solution, and the administration group was given 1 or 10 mg/kg compound 10. The administration frequency was once a day, the administration cycle was 29 days, and the drug withdrawal observation period was set to 14 days. After grouping, the tumor diameter was measured twice a week with a vernier caliper. The formula for calculating the tumor volume was: V=0.5×a×b^2, where a and b represented the long and short diameters of the tumor, respectively. […] The tumor growth curve and the animal body weight change curve were as shown in FIG. 1 and FIG. 2, respectively.

[5] = male, SD, rat, iv, i.v. 2.5 mg/kg, plasma

T1 sequence (Q9UGN5 whole entry): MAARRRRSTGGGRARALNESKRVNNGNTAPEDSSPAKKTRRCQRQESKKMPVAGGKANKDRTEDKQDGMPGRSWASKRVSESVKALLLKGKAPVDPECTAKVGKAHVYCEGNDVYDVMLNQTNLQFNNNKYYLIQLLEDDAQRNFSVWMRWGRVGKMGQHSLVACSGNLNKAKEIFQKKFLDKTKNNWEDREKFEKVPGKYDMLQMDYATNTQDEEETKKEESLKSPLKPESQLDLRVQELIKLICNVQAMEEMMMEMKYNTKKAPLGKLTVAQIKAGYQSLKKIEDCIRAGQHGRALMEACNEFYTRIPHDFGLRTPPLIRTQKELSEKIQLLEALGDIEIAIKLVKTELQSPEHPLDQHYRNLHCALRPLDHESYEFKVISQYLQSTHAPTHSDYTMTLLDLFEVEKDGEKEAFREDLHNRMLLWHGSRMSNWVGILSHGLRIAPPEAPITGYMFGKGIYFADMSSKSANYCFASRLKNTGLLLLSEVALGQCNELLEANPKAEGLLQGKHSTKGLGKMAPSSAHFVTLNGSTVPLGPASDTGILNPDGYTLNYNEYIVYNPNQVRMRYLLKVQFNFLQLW
Sequence of PARP1 (P09874 whole entry): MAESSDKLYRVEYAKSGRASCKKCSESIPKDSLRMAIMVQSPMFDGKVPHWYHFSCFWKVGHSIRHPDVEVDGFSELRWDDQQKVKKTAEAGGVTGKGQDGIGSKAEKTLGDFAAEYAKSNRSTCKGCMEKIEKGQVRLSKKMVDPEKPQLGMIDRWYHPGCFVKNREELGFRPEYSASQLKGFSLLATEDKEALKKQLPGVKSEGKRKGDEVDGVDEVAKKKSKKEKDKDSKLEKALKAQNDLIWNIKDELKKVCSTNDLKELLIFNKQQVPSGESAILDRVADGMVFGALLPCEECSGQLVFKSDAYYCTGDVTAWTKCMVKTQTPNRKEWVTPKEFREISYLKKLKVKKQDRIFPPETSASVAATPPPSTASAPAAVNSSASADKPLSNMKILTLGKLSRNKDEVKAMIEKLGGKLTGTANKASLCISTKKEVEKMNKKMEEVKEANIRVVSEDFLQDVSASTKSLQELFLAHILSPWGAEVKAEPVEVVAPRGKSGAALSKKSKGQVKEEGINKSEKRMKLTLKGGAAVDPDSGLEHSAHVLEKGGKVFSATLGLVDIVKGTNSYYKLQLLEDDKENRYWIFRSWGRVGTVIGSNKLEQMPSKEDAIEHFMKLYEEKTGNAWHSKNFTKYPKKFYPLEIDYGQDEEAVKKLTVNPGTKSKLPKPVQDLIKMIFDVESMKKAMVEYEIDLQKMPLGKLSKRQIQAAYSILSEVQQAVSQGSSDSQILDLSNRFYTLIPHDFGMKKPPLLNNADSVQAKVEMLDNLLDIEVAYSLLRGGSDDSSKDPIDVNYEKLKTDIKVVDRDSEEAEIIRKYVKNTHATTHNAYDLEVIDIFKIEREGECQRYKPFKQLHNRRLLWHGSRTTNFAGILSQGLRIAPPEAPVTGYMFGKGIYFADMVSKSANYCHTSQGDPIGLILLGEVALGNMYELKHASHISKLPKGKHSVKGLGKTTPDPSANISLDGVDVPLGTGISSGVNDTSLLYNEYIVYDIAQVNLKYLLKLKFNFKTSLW
Sequence of PARP7 (Q7Z3E1 whole entry): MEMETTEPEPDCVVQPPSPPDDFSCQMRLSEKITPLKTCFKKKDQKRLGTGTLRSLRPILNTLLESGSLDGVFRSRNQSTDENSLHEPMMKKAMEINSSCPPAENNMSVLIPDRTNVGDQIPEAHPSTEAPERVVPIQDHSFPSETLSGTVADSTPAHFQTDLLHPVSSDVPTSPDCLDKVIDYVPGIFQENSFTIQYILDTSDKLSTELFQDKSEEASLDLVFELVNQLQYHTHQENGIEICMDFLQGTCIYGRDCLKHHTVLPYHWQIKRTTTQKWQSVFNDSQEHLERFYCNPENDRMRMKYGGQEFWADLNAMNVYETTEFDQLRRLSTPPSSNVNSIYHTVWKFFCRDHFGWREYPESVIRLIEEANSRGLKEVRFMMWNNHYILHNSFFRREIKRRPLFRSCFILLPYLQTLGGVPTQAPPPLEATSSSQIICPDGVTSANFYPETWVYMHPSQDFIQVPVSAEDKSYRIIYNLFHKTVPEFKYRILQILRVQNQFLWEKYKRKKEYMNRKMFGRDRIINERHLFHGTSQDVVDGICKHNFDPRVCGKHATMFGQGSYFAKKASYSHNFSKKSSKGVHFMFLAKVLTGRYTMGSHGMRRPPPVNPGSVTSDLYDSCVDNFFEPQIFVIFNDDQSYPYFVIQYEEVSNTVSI

Question: With `CCc1cc2ncc(CN3CCN(c4ccc(C(=O)NC5CCN(c6ccc7c(c6)C(=O)N(C6CCC(=O)NC6=O)C7=O)CC5)nc4)CC3)cc2[nH]c1=O` (stereo not drawn) [Compound 10, N-(1-(2-(2,6-dioxopiperidin-3-yl)-1,3-dioxoisoindolin-5-yl)piperidin-4-yl)-5-(4-((7-ethyl-6-oxo-5,6-dihydro-1,5-naphthyridin-3-yl)methyl)piperazin-1-yl)picolinamide] as the compound, how does the IC50 (PARP2 [1]) read?
Answer: Its IC50 is 41 nM.

Question: And the IC50 (PARP7)?
Answer: The IC50 was 91 nM.

Question: What about the DC50 (PARP1) of the same compound?
Answer: The DC50 was 0.12 nM.

Question: What about the “PARP1 degradation selectivity over PARP2” value (PARP2 [2]) of the same compound?
Answer: The value was “good PARP1 degradation selectivity”.

Question: What about the DC50 (PARP2 [2]; 24 hours) of the same compound?
Answer: Its DC50 is over 5 nM.

Question: What about the pharmacokinetic characteristics [3] of the same compound?
Answer: Its pharmacokinetic characteristics is “good pharmacokinetic characteristics”.

Question: And the F ([3]; i.g. 10 mg/kg)?
Answer: The F was 34.3%.

Question: And the AUC(0-t) [3, 5]?
Answer: The AUC(0-t) was 31200 ng·h/mL.

Question: And the clearance [3, 5]?
Answer: The clearance was 1.42 mL/min/kg.

Question: And the Vd ([3]; male, SD, rat, iv, i.v. 2.5 mg/kg, plasma, read-out: Vdss)?
Answer: The Vd was 0.405 L/kg.

Question: What about the AUC(0-t) ([3]; male, SD, rat, po, i.g. 10 mg/kg, plasma) of the same compound?
Answer: The AUC(0-t) was 42900 ng·h/mL.

Question: What about the “tumor growth after drug withdrawal” value ([4]; 1 mg/kg group, 14 days withdrawal observation) of the same compound?
Answer: Its value is “continued to grow”.

Question: And the TGI ([4]; 1 mg/kg once a day)?
Answer: Its TGI is 47.14%.

Question: And the “tumor volume after drug withdrawal” value ([4]; 10 mg/kg group, 14 days withdrawal observation)?
Answer: The value was “consistently smaller than the tumor volume at the time of grouping”.

Question: And the TGI ([4]; 10 mg/kg once a day)?
Answer: The TGI was 111%.

Question: And the “body weight of the animals” value ([4]; 1 or 10 mg/kg once a day)?
Answer: Its value is “no significant decrease in the body weight”.

Question: What about the “efficacy in inhibiting tumor growth” value ([4]; mouse MDA-MB-436 model) of the same compound?
Answer: Its value is “good efficacy in inhibiting tumor growth and inducing tumor regression”.

Question: And the tolerability ([4]; mouse MDA-MB-436 model)?
Answer: Its tolerability is “well tolerated”.
